Literature values in US20080044356A1, “Assemblies of Oligomeric Amyloid Beta Protein and Uses Thereof” (Regents of the University of Minnesota, priority 2004, published 2008).
Where two headings read alike, the source gives them in different places.

Key:
rats [1] = test system: rats
[2] = test system: Alzheimer's disease (AD) patients
rats [3] = test system: rats; remark: listed apart in the source
[4] = animals treated in utero (congenital hypothyroidism), versus controls
[5] = congenitally hypothyroid rats with replacement treatment

CC(C)Cc1ccc(C(C)C(=O)O)cc1 (stereo not shown) [ibuprofen]
effect on Aβ-induced ALCR performance decrements (rats [1]; after IH injection of pre-aggregated Aβ): mitigated these effects
ALCR Cognitive Effect (rats [1]; route PO): Normalized errors
ALCR Running Response Rate (rats [1]; route PO): No effect

AN-1792: beta amyloid peptide 1-42, used for active immunization
adverse reaction to active immunization ([2]; human, in vivo): risk of encephalitis
cognitive function ([2]; immunization, subset of AD patients): encouraging preliminary reports

CN1[C@@H]2CC[C@H]1C[C@@H](OC(=O)C(CO)c1ccccc1)C2 (stereo partly shown) [atropine]
switching errors (rats [1]; 1.0 mg/kg IP): increases switching errors significantly
ALCR Cognitive Effect (rats [1]; route IP): Increased errors
ALCR Running Response Rate (rats [1]; route IP): No effect
ALCR Running Response Rate (rats [1]; route IP, 1 mg/kg): Reduced

Cn1cc[nH]c1=S [methimzole, methimazole]
learning to criterion in the ALCR task (rats [1]; [4]): significantly slower learning to criterion
ALCR Cognitive Effect (rats [1]; route PO): Slow learning
ALCR Running Response Rate (rats [1]; route PO): No effect
motivation for food in the PR task (rats [3]; [4]): not different from that of controls
Direct test of Motivation (rats [3]; route PO, FOA, PR assessments): No effect

N[C@@H](Cc1cc(I)c(Oc2cc(I)c(O)c(I)c2)c(I)c1)C(=O)O [thyroxin, thyroxine]
learning to criterion and error rates in the ALCR task (rats [1]; [5]): normal learning to criterion and error rates
motivation for food in the PR task (rats [3]; [5]): performed equally well
